Data as given in patent US8513233B2, “Pyrimidinyl-propionic acid derivatives and their use as PPAR agonists” (Shanghai Institute of Materia Medica, CAS, priority 2007, dated 2013).

What was measured:
PPAR-γ = biological target: T1, PPAR-γ (Homo sapiens, UniProt P37231); assay: Transient transfection and transcription assay (luciferase reporter, U2OS cells); assay type: cell-based; conditions: 24 h treatment
T1 construct: expressed in transfected cells; host or cells: U2OS cells, transiently transfected with pcDNA3.1 expression vectors (FuGene6)
T1 sequence (P37231 1-505): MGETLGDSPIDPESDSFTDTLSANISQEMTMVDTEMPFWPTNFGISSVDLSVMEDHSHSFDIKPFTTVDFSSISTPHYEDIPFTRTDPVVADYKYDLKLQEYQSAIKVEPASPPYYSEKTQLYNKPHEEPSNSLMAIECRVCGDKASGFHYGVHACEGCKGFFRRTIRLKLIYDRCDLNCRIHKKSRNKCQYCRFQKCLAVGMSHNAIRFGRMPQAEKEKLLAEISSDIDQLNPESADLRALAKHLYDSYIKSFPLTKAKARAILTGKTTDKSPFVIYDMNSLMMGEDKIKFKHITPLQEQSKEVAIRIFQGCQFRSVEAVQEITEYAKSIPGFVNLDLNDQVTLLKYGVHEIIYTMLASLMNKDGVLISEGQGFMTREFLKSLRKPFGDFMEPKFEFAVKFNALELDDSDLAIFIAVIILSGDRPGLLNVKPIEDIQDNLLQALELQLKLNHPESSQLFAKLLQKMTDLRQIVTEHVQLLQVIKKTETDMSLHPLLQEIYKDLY
T1 sequence (P19793 1-462 partner): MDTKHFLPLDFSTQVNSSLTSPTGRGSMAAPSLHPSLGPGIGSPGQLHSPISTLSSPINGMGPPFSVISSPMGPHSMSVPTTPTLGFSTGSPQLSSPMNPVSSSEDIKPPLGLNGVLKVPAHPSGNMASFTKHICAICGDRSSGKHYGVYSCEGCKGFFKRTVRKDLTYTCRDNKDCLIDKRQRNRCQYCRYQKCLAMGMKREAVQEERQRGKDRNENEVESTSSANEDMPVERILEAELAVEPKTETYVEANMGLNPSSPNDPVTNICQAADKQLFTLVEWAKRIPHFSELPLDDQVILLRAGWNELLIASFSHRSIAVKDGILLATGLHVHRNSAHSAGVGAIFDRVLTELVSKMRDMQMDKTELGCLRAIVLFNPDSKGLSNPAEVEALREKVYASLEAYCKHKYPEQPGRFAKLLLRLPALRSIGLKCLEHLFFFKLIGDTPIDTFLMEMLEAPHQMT
Method: cDNAs for Human RXR, PPAR were obtained by RTPCR from the human liver or adipose tissues. Amplified cDNAs were cloned into pcDNA3.1 expression vector and the inserts were confirmed by sequencing. U2OS cells were cultured in McCoy's 5A with 10% heat-inactivated fetal bovine serum in a humidified 5% CO2 atmosphere at 37° C. Cells were seeded in 96-well plates the day before transfection to give a confluence of 50-80% at transfection. A total of 60 ng of DNA containing 10 ng of hRXR, 10 ng of pCMV Gal, 10 ng of nuclear receptor expression vectors and 30 ng of the corresponding reporters were cotransfected per well using FuGene6 transfection reagent according to the manufacturer's instructions. […] The final concentration of DMSO in culture medium was 0.1%. […] Luciferase activity was monitored using the luciferase assay kit according to the manufacturers instructions. Light emission was read in a Labsystems Ascent Fluoroskan reader. To measure galactosidase activity to normalize the luciferase data, 50 IL of supernatant from each transfection lysate was transferred to a new microplate. Galactosidase assays were performed in the microwell plates using a kit from Promega and read in a microplate reader. Compounds were tested in five concentrations ranging from 0.01 to 10 μM. […] The results were expressed as means (SD).

SPC-A1 = assay: Growth inhibition, modified MTT assay, SPC-A1; assay type: cell-based; conditions: SPCA1, mean of 3 independent tests
Method: (§1) The growth inhibition was evaluated by the modified MTT assay. Briefly, the cells were seeded at 1×10^4 cells/well in 96-well plates (Falcon, Calif., USA), and incubated for 24 h in […] culture media with 10% FCS. The media were then replaced by serum-free medium. After 24 h, the media were placed in triplicate with grade concentrations of compounds. As controls, the cells were cultivated in DMEM/F12 only. The cells were then treated by MTT (Sigma, USA) assay, […] (5 g/L) for 4 h. After the removal of the supernatant, the purple-blue sediment was dissolved in 100 μL/well DMSO, and the optical densities were read on the multi-well scanning spectrophotometer (Labsystems Dragon, Finland) at 492 nm (A492). The growth inhibition rate (GIR) of the treated cells was calculated using Equation: GIR(%)={1−[A490/A490(control)]}×100% The results were also converted to IC50 (the compound concentration required for 50% growth inhibition of tumor cells), which were calculated by using the sigmoidal fitting model by the Origin 7.0 software (OriginLab, Northampton, Mass., USA). The mean IC50 was determined from the results of 3 independent tests.

T24 = assay: Growth inhibition, modified MTT assay, T24; assay type: cell-based; conditions: Homo sapiens, T-24, mean of 3 independent tests
Method: as §1

HepG2 = assay: Growth inhibition, modified MTT assay, HepG2; assay type: cell-based; conditions: Homo sapiens, mean of 3 independent tests
Method: as §1

MCF-7 = assay: Growth inhibition, modified MTT assay, MCF-7; assay type: cell-based; conditions: Homo sapiens, MCF7; MCF-7, MTT, mean of 3 independent tests
Method: as §1

EC50 (PPAR-γ) | IC50 (T24) | IC50 (HepG2) | IC50 (MCF-7) | melting point | SMILES | IC50 (SPC-A1)
1.62 µM | > 50 µM | > 50 µM | 33.5 µM | 126 to 128 °C | CC(Cc1ccc(Oc2cc(N3CCN(Cc4ccccc4)CC3)nc(Oc3ccccc3)n2)cc1)(Oc1ccccc1)C(=O)O (centres unmarked) [Compound 43, 3-{4-[6-(4-Benzyl-piperazin-1-yl)-2-phenoxy-pyrimidin-4-yloxy]-phenyl}-2-methyl-2-phenoxy-propionic acid] | 32.5 µM
7.08 µM | 21.9 µM | 37.5 µM | 27.6 µM | 120 to 121 °C | CCN(CC)c1nc(Oc2ccc(CC(C)(Oc3ccccc3)C(=O)O)cc2)cc(N2CCN(Cc3ccccc3)CC2)n1 (centres unmarked) [Compound 51, 3-{4-[6-(4-Benzyl-piperazin-1-yl)-2-diethylamino-pyrimidin-4-yloxy]-phenyl}-2-methyl-2-phenoxy-propionic acid] | 36.6 µM
4.68 µM | 19.6 µM | 29.3 µM | 14.6 µM | 107 to 109 °C | CC(Cc1ccc(Oc2cc(N3CCN(Cc4ccccc4)CC3)ncn2)cc1)(Oc1ccccc1)C(=O)O (centres unmarked) [Compound 28, 3-{4-[6-(4-benzyl-piperazin-1-yl)-pyrimidin-4-yloxy]-phenyl}-2-methyl-2-phenoxy-propionic acid] | 28.6 µM
5.13 µM | > 50 µM | > 50 µM | 40.6 µM | 87 to 89 °C | CC(Cc1ccc(Oc2cc(N3CCN(Cc4cccc(Cl)c4)CC3)nc(N)n2)cc1)(Oc1ccccc1)C(=O)O (centres unmarked) [Compound 11, 3-{4-{2-Amino-6-[4-(3-chloro-benzyl)-piperazin-1-yl]-pyrimidin-4-yloxy}-phenyl}-2-methyl-2-phenoxy-propionic acid] | 47.6 µM
6.46 µM | > 50 µM | > 50 µM | > 50 µM | 190 to 192 °C | CC(Cc1ccc(Oc2cc(N3CCN(Cc4ccc5c(c4)OCO5)CC3)nc(N)n2)cc1)(Oc1ccccc1)C(=O)O (centres unmarked) [Compound 5] | > 50 µM
6.46 µM | > 50 µM | > 50 µM | > 50 µM | 113 to 115 °C | CC(Cc1ccc(Oc2cc(N3CCN(Cc4cccc(F)c4)CC3)nc(N)n2)cc1)(Oc1ccccc1)C(=O)O (centres unmarked) [Compound 12, 3-{4-{2-Amino-6-[4-(3-fluoro-benzyl)-piperazin-1-yl]-pyrimidin-4-yloxy}-phenyl}-2-methyl-2-phenoxy-propionic acid] | > 50 µM
6.31 µM |  | 49.5 µM | > 50 µM | 110 to 111 °C | CC(Cc1ccc(Oc2cc(N3CCN(c4ccccn4)CC3)nc(N)n2)cc1)(Oc1ccccc1)C(=O)O (centres unmarked) [Compound 19, 3-{4-[2-Amino-6-(4-pyridin-2-yl-piperazin-1-yl)-pyrimidin-4-yloxy]-phenyl}-2-methyl-2-phenoxy-propionic acid] | 42.5 µM
6.46 µM | > 50 µM | > 50 µM | > 50 µM | 107 to 108 °C | CC(Cc1ccc(Oc2cc(N3CCN(CC(=O)c4ccccc4)CC3)nc(N)n2)cc1)(Oc1ccccc1)C(=O)O (centres unmarked) [Compound 18, 3-{4-{2-Amino-6-[4-(2-oxo-2-phenyl-ethyl)-piperazin-1-yl]-pyrimidin-4-yloxy}-phenyl}-2-methyl-2-phenoxy-propionic acid] | > 50 µM
4.68 µM | 11.1 µM | 35.2 µM | 15.4 µM | 135 to 137 °C | CC(Cc1ccc(Oc2cc(Oc3ccccc3)nc(N3CCN(Cc4ccccc4)CC3)n2)cc1)(Oc1ccccc1)C(=O)O (centres unmarked) [Compound 44, 3-{4-[2-(4-Benzyl-piperazin-1-yl)-6-phenoxy-pyrimidin-4-yloxy]-phenyl}-2-methyl-2-phenoxy-propionic acid] | 14.1 µM
2.95 µM | > 50 µM | > 50 µM | > 50 µM | 136 to 138 °C | CN(C)c1nc(Oc2ccc(CC(C)(Oc3ccccc3)C(=O)O)cc2)cc(N2CCN(Cc3ccccc3)CC2)n1 (centres unmarked) [Compound 49, 3-{4-[6-(4-Benzyl-piperazin-1-yl)-2-dimethylamino-pyrimidin-4-yloxy]-phenyl}-2-methyl-2-phenoxy-propionic acid] | > 50 µM
 | 36.2 µM | > 50 µM | 28.5 µM | 114 to 115 °C | CC(Cc1ccc(Oc2cc(N3CCN(Cc4ccc(C(F)(F)F)cc4)CC3)nc(N)n2)cc1)(Oc1ccccc1)C(=O)O (centres unmarked) [Compound 8, 3-{4-{2-Amino-6-[4-(4-trifluoromethyl-benzyl)-piperazin-1-yl]-pyrimidin-4-yloxy}-phenyl}-2-methyl-2-phenoxy-propionic acid] | 42.5 µM
3.8 µM | > 50 µM | > 50 µM | > 50 µM | 126 to 127 °C | CC(Cc1ccc(Oc2cc(N3CCN(Cc4ccccc4)CC3)nc(N3CCCC3)n2)cc1)(Oc1ccccc1)C(=O)O (centres unmarked) [Compound 54, 3-{4-[6-(4-Benzyl-piperazin-1-yl)-2-pyrrolidin-1-yl-pyrimidin-4-yloxy]-phenyl}-2-methyl-2-phenoxy-propionic acid] | > 50 µM
4.68 µM | 12.4 µM | 17.9 µM | 17.6 µM | 125 to 126 °C | CC(Cc1ccc(Oc2cc(N3CCN(Cc4ccccc4)CC3)nc(N3CCCCC3)n2)cc1)(Oc1ccccc1)C(=O)O (centres unmarked) [Compound 52, 3-{4-[6-(4-Benzyl-piperazin-1-yl)-2-piperidin-1-yl-pyrimidin-4-yloxy]-phenyl}-2-methyl-2-phenoxy-propionic acid] | 7.8 µM
 | 40.3 µM | > 50 µM | 45.3 µM | 160 to 162 °C | CC(Cc1ccc(Oc2cc(N3CCN(Cc4ccc([N+](=O)[O-])cc4)CC3)nc(N)n2)cc1)(Oc1ccccc1)C(=O)O (centres unmarked) [Compound 38, 3-{4-{2-Amino-6-[4-(4-nitro-benzyl)-piperazin-1-yl]-pyrimidin-4-yloxy}-phenyl}-2-methyl-2-phenoxy-propionic acid] | > 50 µM
 | > 50 µM | > 50 µM | 38.8 µM | 141 to 143 °C | CC(Cc1ccc(Oc2cc(N3CCN(Cc4cccnc4)CC3)nc(N)n2)cc1)(Oc1ccccc1)C(=O)O (centres unmarked) [Compound 39, 3-{4-[2-Amino-6-(4-pyridin-3-ylmethyl-piperazin-1-yl)-pyrimidin-4-yloxy]-phenyl}-2-methyl-2-ph enoxy-propionic acid] | 43.5 µM
